According to patent publication US20250179061A1 (SIRONAX LTD., priority 2022, published 2025):

These compounds were tested on HT-29 cells (assay: HT-29 necroptosis cell viability assay (TNF-α/SMAC mimetic/zVAD-FMK, CellTiter-Glo)). Conditions: Homo sapiens, HT-29, HT-29 necroptosis cell viability, IC50 class symbols; read-out: Activity.
Assay type: cell-based
Method in brief: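 HT-29 cells (~5,000/well, overnight) in FBS-free McCoy's 5A with TNF-α 10 ng/ml, SMAC mimetic 6 μM and zVAD-FMK 10 μM plus 10-point 1:3 compound titration, 20 h at 37°C. ATP measured by CellTiter-Glo luminescence; IC50 as geometric mean of duplicates.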

Compared with `CC(C)(C)OC(=O)Nc1cc(Oc2ccc(-n3ncn(Cc4ccccc4)c3=O)cc2)ccn1` [Example 311, tert-butyl (4-(4-(4-benzyl-5-oxo-4,5-dihydro-1H-1,2,4-triazol-1-yl)phenoxy)pyridin-2-yl)carbamate], `CC(C)(C)OC(=O)NC1CN(c2cc(Oc3ccc(-n4ncn(Cc5c(F)cccc5F)c4=O)cc3)ccn2)C1` [Example 327, tert-butyl (1-(4-(4-(4-(2,6-difluorobenzyl)-5-oxo-4,5-dihydro-1H-1,2,4-triazol-1-yl)phenoxy)pyridin-2-yl)azetidin-3-yl)carbamate] is lower in IC50: 100 to 1000 nM for the first, less than 100 nM for the second. The second is the more potent here.

First: Cc1nc(CC2CNC2)sc1Oc1ccc(-n2ncn(Cc3c(F)cccc3F)c2=O)cc1 [Example 312, 2-(4-((2-(azetidin-3-ylmethyl)-4-methylthiazol-5-yl)oxy)phenyl)-4-(2,6-difluorobenzyl)-2,4-dihydro-3H-1,2,4-triazol-3-one]
Second: NC1CN(c2cc(Oc3ccc(-n4ncn(Cc5c(F)cccc5F)c4=O)cc3)ccn2)C1 [Example 322, 2-(4-((2-(3-aminoazetidin-1-yl)pyridin-4-yl)oxy)phenyl)-4-(2,6-difluorobenzyl)-2,4-dihydro-3H-1,2,4-triazol-3-one]
The IC50 of the first is lower: less than 100 nM for the first, 100 to 1000 nM for the second.

First: N#CC12CC(Nc3nccc(Oc4ccc(-n5ncn(Cc6c(F)cccc6F)c5=O)cc4Cl)c3Cl)(C1)C2 [Example 313, 3-((3-chloro-4-(2-chloro-4-(4-(2,6-difluorobenzyl)-5-oxo-4,5-dihydro-1H-1,2,4-triazol-1-yl)phenoxy)pyridin-2-yl)amino)bicyclo[1.1.1]pentane-1-carbonitrile]
Second: N#CC12CC(Nc3cc(Oc4ccc(-n5ncn(Cc6c(F)cccc6F)c5=O)cc4)c(Cl)cn3)(C1)C2 [Example 325, 3-((5-chloro-4-(4-(4-(2,6-difluorobenzyl)-5-oxo-4,5-dihydro-1H-1,2,4-triazol-1-yl)phenoxy)pyridin-2-yl)amino)bicyclo[1.1.1]pentane-1-carbonitrile]
The IC50 of the first is higher: 100 to 1000 nM for the first, less than 100 nM for the second. The second is the more potent here.

`COC1(C#N)CN(c2cc(Oc3ccc(-n4ncn(Cc5c(F)cccc5F)c4=O)cc3Cl)ccn2)C1` [Example 314, 1-(4-(2-chloro-4-(4-(2,6-difluorobenzyl)-5-oxo-4,5-dihydro-1H-1,2,4-triazol-1-yl)phenoxy)pyridin-2-yl)-3-methoxyazetidine-3-carbonitrile] and `COC1(C#N)CN(c2cc(Oc3ccc(-n4ncn(Cc5c(F)cccc5F)c4=O)cc3)c(Cl)cn2)C1` [Example 319, 1-(5-chloro-4-(4-(4-(2,6-difluorobenzyl)-5-oxo-4,5-dihydro-1H-1,2,4-triazol-1-yl)phenoxy)pyridin-2-yl)-3-methoxyazetidine-3-carbonitrile] cannot be ordered by IC50: less than 100 nM for the first, less than 100 nM for the second.

`O=c1n(Cc2c(F)cccc2F)cnn1-c1ccc(Oc2ccnc(N3CC4(CCN4)C3)c2)cc1` [Example 315, 2-(4-((2-(1,6-diazaspiro[3.3]heptan-6-yl)pyridin-4-yl)oxy)phenyl)-4-(2,6-difluorobenzyl)-2,4-dihydro-3H-1,2,4-triazol-3-one] and `CC1(O)CN(c2cc(Oc3ccc(-n4ncn(Cc5c(F)cccc5F)c4=O)cc3)ccn2)C1` [Example 329, 4-(2,6-difluorobenzyl)-2-(4-((2-(3-hydroxy-3-methylazetidin-1-yl)pyridin-4-yl)oxy)phenyl)-2,4-dihydro-3H-1,2,4-triazol-3-one] cannot be ordered by IC50: less than 100 nM for the first, less than 100 nM for the second.

Compared with `C[C@H]1C[C@H](N)CN1c1cc(Oc2ccc(-n3ncn(Cc4c(F)cccc4F)c3=O)cc2)ccn1` [Example 316, 2-(4-((2-((2S,4S)-4-amino-2-methylpyrrolidin-1-yl)pyridin-4-yl)oxy)phenyl)-4-(2,6-difluorobenzyl)-2,4-dihydro-3H-1,2,4-triazol-3-one], `CCNC1CN(c2cc(Oc3ccc(-n4ncn(Cc5c(F)cccc5F)c4=O)cc3)ccn2)C1` [Example 318, 4-(2,6-difluorobenzyl)-2-(4-((2-(3-(ethylamino)azetidin-1-yl)pyridin-4-yl)oxy)phenyl)-2,4-dihydro-3H-1,2,4-triazol-3-one] is higher in IC50: less than 100 nM for the first, 100 to 1000 nM for the second. The first is the more potent here.

First: CC(C)(C)OC(=O)N1CCC12CN(c1cc(Oc3ccc(-n4ncn(Cc5c(F)cccc5F)c4=O)cc3)ccn1)C2 [Example 317, tert-butyl 6-(4-(4-(4-(2,6-difluorobenzyl)-5-oxo-4,5-dihydro-1H-1,2,4-triazol-1-yl)phenoxy)pyridin-2-yl)-1,6-diazaspiro[3.3]heptane-1-carboxylate]
Second: O=c1n(Cc2c(F)cccc2F)cnn1-c1ccc(Oc2ccnc(N3CC4(CCCO4)C3)c2)cc1 [Example 331, 2-(4-((2-(5-oxa-2-azaspiro[3.4]octan-2-yl)pyridin-4-yl)oxy)phenyl)-4-(2,6-difluorobenzyl)-2,4-dihydro-3H-1,2,4-triazol-3-one]
The IC50 of the first is higher: 1000 to 10000 nM for the first, less than 100 nM for the second.

First: COC1(C#N)CN(c2cc(Oc3ccc(-n4ncn(Cc5c(F)cccc5F)c4=O)cc3)c(C)cn2)C1 [Example 320, 1-(4-(4-(4-(2,6-difluorobenzyl)-5-oxo-4,5-dihydro-1H-1,2,4-triazol-1-yl)phenoxy)-5-methylpyridin-2-yl)-3-methoxyazetidine-3-carbonitrile]
Second: CC1(C#N)CN(c2cc(Oc3ccc(-n4ncn(Cc5c(F)cccc5F)c4=O)cc3)c(F)cn2)C1 [Example 323, 1-(4-(4-(4-(2,6-difluorobenzyl)-5-oxo-4,5-dihydro-1H-1,2,4-triazol-1-yl)phenoxy)-5-fluoropyridin-2-yl)-3-methylazetidine-3-carbonitrile]
The IC50 of the first is lower: less than 100 nM for the first, 100 to 1000 nM for the second.

`CC1(N)CN(c2nccc(Oc3ccc(-n4ncn(Cc5c(F)cccc5F)c4=O)cc3)c2F)C1` [Example 321, 2-(4-((2-(3-amino-3-methylazetidin-1-yl)-3-fluoropyridin-4-yl)oxy)phenyl)-4-(2,6-difluorobenzyl)-2,4-dihydro-3H-1,2,4-triazol-3-one] and `CCOC1CN(c2cc(Oc3ccc(-n4ncn(Cc5c(F)cccc5F)c4=O)cc3)c(F)cn2)C1` [Example 324, 4-(2,6-difluorobenzyl)-2-(4-((2-(3-ethoxyazetidin-1-yl)-5-fluoropyridin-4-yl)oxy)phenyl)-2,4-dihydro-3H-1,2,4-triazol-3-one] cannot be ordered by IC50: less than 100 nM for the first, less than 100 nM for the second.

`CCOC1CN(c2cc(Oc3ccc(-n4ncn(Cc5c(F)cccc5F)c4=O)cc3)c(Cl)cn2)C1` [Example 326, 2-(4-((5-chloro-2-(3-ethoxyazetidin-1-yl)pyridin-4-yl)oxy)phenyl)-4-(2,6-difluorobenzyl)-2,4-dihydro-3H-1,2,4-triazol-3-one] and `O=c1n(Cc2c(F)cccc2F)cnn1-c1ccc(Oc2ccnc(N3CCC4(CCOC4)C3)c2)cc1` (stereo not shown) [Example 330, 2-(4-((2-(2-oxa-7-azaspiro[4.4]nonan-7-yl)pyridin-4-yl)oxy)phenyl)-4-(2,6-difluorobenzyl)-2,4-dihydro-3H-1,2,4-triazol-3-one] cannot be ordered by IC50: less than 100 nM for the first, less than 100 nM for the second.

`O=c1n(Cc2c(F)cccc2F)cnn1-c1ccc(Oc2ccnc(NC3CC(F)(F)C3)c2)cc1` [Example 328, 4-(2,6-difluorobenzyl)-2-(4-((2-((3,3-difluorocyclobutyl)amino)pyridin-4-yl)oxy)phenyl)-2,4-dihydro-3H-1,2,4-triazol-3-one] and `NC1CC2(C1)CC(Nc1cc(Oc3ccc(-n4ncn(Cc5c(F)cccc5F)c4=O)cc3)ccn1)C2` (stereo not shown) [Example 332, 2-(4-((2-((6-aminospiro[3.3]heptan-2-yl)amino)pyridin-4-yl)oxy)phenyl)-4-(2,6-difluorobenzyl)-2,4-dihydro-3H-1,2,4-triazol-3-one] fall in the same range of IC50: 100 to 1000 nM for the first, 100 to 1000 nM for the second.
